Molecular target: T1, BFT (Bacteroides fragilis, UniProt P54355)
T1 sequence (P54355 26-405): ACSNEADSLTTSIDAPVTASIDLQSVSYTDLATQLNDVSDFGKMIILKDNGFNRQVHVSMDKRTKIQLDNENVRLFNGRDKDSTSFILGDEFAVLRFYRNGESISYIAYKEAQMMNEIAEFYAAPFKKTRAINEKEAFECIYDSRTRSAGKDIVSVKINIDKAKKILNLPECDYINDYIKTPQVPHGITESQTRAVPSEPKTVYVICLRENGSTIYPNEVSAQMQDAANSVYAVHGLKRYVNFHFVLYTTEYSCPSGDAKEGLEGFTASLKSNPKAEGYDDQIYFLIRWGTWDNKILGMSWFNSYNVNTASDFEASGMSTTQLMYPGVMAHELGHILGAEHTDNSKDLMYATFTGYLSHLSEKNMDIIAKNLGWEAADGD
Format: cell-based, Bacterioides fragilis

Question: NCCCCCN [cadaverine, 1,5-diaminopentane] was tested. Which “Effect of Cadaverine, enterotoxicity in Ussing chambers” value did it give?
Answer: The value was “completely”.

Question: And the “ΔIsc + cadaverine” value?
Answer: Its value is 21.5.
